From patent US6403626B1, “Benzimidazole derivatives” (Synaptic Pharmaceutical Corporation, priority 1994, dated 2002)
Structures can show the parent of a compound that is named as a salt.

SMILES: Cn1cnc2cc(NC3=NCCN3)ccc21 (as salt: fumarate) [Example 9, 1-Methyl-5-(2-imidazolin-2-ylamino)Benzimidazole]
- melting point: 210 to 211 °C

SMILES: Cn1cnc2ccc(NC3=NCCN3)cc21 (as salt: fumarate) [Example 11, 3-Methyl-5-(2-imidazolin-2-ylamino)Benzimidazole]
- melting point: 202 to 204 °C

SMILES: CCCn1cnc2cc(NC3=NCCN3)ccc21 (as salt: fumarate) [Example 13, 1-Propyl-5-(2-imidazolin-2-ylamino)Benzimidazole]
- melting point: 206 to 207 °C

SMILES: CCCn1cnc2ccc(NC3=NCCN3)cc21 (as salt: fumarate) [Example 15, 3-Propyl-5-(2-imidazolin-2-ylamino)Benzimidazole]
- melting point: 198 to 199 °C

SMILES: CC(C)n1cnc2cc(NC3=NCCN3)ccc21 (as salt: fumarate) [Example 17, 1-Isopropyl-5-(2-imidazolin-2-ylamino)Benzimidazole]
- melting point: 185 to 186 °C

SMILES: CC(C)n1cnc2c(Br)c(NC3=NCCN3)ccc21 (as salt: fumarate) [Example 18, 1-Isopropyl-4-bromo-5-(2-imidazolin-2-ylamino)Benzimidazole]
- melting point: 187 to 188 °C

SMILES: CC(C)n1cnc2c(I)c(NC3=NCCN3)ccc21 (as salt: fumarate) [Example 19, 1-lsopropyl-4-Iodo-5-(2-imidazolin-2-ylamino)Benzimidazole]
- melting point: 208 to 209 °C

SMILES: CC(C)n1cnc2ccc(NC3=NCCN3)c(Br)c21 (as salt: fumarate) [Example 21, 3-Isopropyl-4-bromo-5-(2-imidazolin-2-ylamino)Benzimidazole]
- melting point: 210 to 212 °C

SMILES: CC(C)Cn1cnc2cc(NC3=NCCN3)ccc21 (as salt: fumarate) [Example 22, 1-Isobutyl-5-(2-imidazolin-2-ylamino)Benzimidazole]
- melting point: 185 to 186 °C

SMILES: CC(C)Cn1cnc2ccc(NC3=NCCN3)c(Br)c21 (as salt: fumarate) [Example 24, 3-Isobutyl-4-bromo-5-(2-imidazolin-2-ylamino)Benzimidazole]
- melting point: 187 to 188 °C

SMILES: c1cc2c(cc1NC1=NCCN1)ncn2C1CCCC1 (as salt: fumarate) [Example 25, 1-Cyclopentyl-5-(2-imidazolin-2-ylamino)Benzimidazole]
- melting point: 214 to 215 °C

SMILES: Brc1c(NC2=NCCN2)ccc2c1ncn2C1CCCC1 (as salt: fumarate) [Example 26, 1-Cyclopentyl-4-bromo-5-(2-imidazolin-2-ylamino)Benzimidazole]
- melting point: 180 to 182 °C

SMILES: c1cc2ncn(C3CCCC3)c2cc1NC1=NCCN1 (as salt: fumarate) [Example 27, 3-Cyclopentyl-5-(2-imidazolin-2-ylamino)Benzimidazole]
- melting point: 158 to 159 °C

SMILES: Brc1c(NC2=NCCN2)ccc2ncn(C3CCCC3)c12 (as salt: fumarate) [Example 28, 3-Cyclopentyl-4-bromo-5-(2-imidazolin-2-ylamino)Benzimidazole]
- melting point: 208 to 210 °C

SMILES: c1cc2c(cc1NC1=NCCN1)ncn2CC1CCCCC1 (as salt: fumarate) [Example 29, 1-Cyclohexylmethyl-5-(2-imidazolin-2-ylamino)Benzimidazole]
- melting point: 222 to 223 °C

SMILES: Brc1c(NC2=NCCN2)ccc2c1ncn2CC1CCCCC1 (as salt: fumarate) [Example 30, 1-Cyclohexylmethyl-4-bromo-5-(2-imidazolin-2-ylamino)Benzimidazole]
- melting point: 193 to 195 °C

SMILES: Brc1c(NC2=NCCN2)ccc2ncn(CC3CCCCC3)c12 (as salt: fumarate) [Example 31, 3-Cyclohexylmethyl-4-bromo-5-(2-imidazolin-2-ylamino)Benzimidazole]
- melting point: 153 to 155 °C

SMILES: c1ccc(Cn2cnc3cc(NC4=NCCN4)ccc32)cc1 (as salt: fumarate) [Example 32, 1-Benzyl-5-(2-imidazolin-2-ylamino)Benzimidazole]
- melting point: 174 to 175 °C

SMILES: Brc1c(NC2=NCCN2)ccc2c1ncn2Cc1ccccc1 (as salt: fumarate) [Example 33, 1-Benzyl-4-bromo-5-(2-imidazolin-2-ylamino)Benzimidazole]
- melting point: 197 to 198 °C

SMILES: c1ccc(Cn2cnc3ccc(NC4=NCCN4)cc32)cc1 (as salt: fumarate) [Example 34, 3-Benzyl-5-(2-imidazolin-2-ylamino)Benzimidazole]
- melting point: 174 to 175 °C

SMILES: Brc1c(NC2=NCCN2)ccc2ncn(Cc3ccccc3)c12 (as salt: fumarate) [Example 35, 3-Benzyl-4-bromo-5-(2-imidazolin-2-ylamino)Benzimidazole]
- melting point: 203 to 205 °C

SMILES: COc1cccc(Cn2cnc3c(Br)c(NC4=NCCN4)ccc32)c1 (as salt: fumarate) [Example 37, 1-(3-Methoxybenzyl)-4-bromo-5-(2-imidazolin-2-ylamino)Benzimidazole]
- melting point: 177 to 178 °C

SMILES: OCCn1cnc2c(Br)c(NC3=NCCN3)ccc21 (as salt: fumarate) [Example 38, 1-(2-Hydroxyethyl)-4-bromo-5-(2-imidazolin-2-ylamino)Benzimidazole]
- melting point: 141 to 143 °C

SMILES: Cc1nc2ccc(NC3=NCCN3)c(Br)c2[nH]1 (as salt: fumarate) [Example 42, 2-Methyl-4-bromo-5-(2-imidazolin-2-ylamino)Benzimidazole]
- melting point: 222 to 224 °C

SMILES: CCc1nc2ccc(NC3=NCCN3)c(Br)c2[nH]1 (as salt: fumarate) [Example 43, 2-Ethyl-4-bromo-5-(2-imidazolin-2-ylamino)Benzimidazole]
- melting point: 186 to 187 °C

SMILES: CC(C)c1nc2ccc(NC3=NCCN3)c(Br)c2[nH]1 (as salt: fumarate) [Example 44, 2-Isopropyl-4-bromo-5-(2-imidazolin-2-ylamino)Benzimidazole]
- melting point: 176 to 178 °C

SMILES: CC(C)(C)c1nc2ccc(NC3=NCCN3)c(Br)c2[nH]1 (as salt: fumarate) [Example 45, 2-tert-Butyl-4-bromo-5-(2-imidazolin-2-ylamino)Benzimidazole]
- melting point: 176 to 178 °C

SMILES: Brc1c(NC2=NCCN2)ccc2nc(C(c3ccccc3)c3ccccc3)[nH]c12 (as salt: fumarate) [Example 48, 2-Diphenylmethyl-4-bromo-5-(2-imidazolin-2-ylamino)Benzimidazole]
- melting point: 240 to 242 °C

SMILES: Cc1cc2nc[nH]c2cc1NC1=NCCN1 (as salt: fumarate) [Example 49, 6-Methyl-5-(2-imidazolin-2-ylamino)Benzimidazole]
- melting point: 219 to 221 °C

SMILES: Brc1cc(NC2=NCCN2)cc2[nH]cnc12 (as salt: fumarate) [Example 51, 7-Bromo-5-(2-imidazolin-2-ylamino)Benzimidazole]
- melting point: 217 to 218 °C

SMILES: Cc1cc(NC2=NCCN2)cc2[nH]cnc12 (as salt: fumarate) [Example 52, 7-Methyl-5-(2-imidazolin-2-ylamino)Benzimidazole]
- melting point: 229 to 231 °C

SMILES: Clc1cc(NC2=NCCN2)cc2[nH]cnc12 (as salt: fumarate) [Example 53, 7-Chloro-5-(2-imidazolin-2-ylamino)Benzimidazole]
- melting point: 220 to 221 °C

SMILES: CCc1cc(NC2=NCCN2)cc2[nH]cnc12 (as salt: fumarate) [Example 55, 7-Ethyl-5-(2-imidazolin-2-ylamino)Benzimidazole]
- melting point: 203 to 205 °C

SMILES: CCCCc1cc(NC2=NCCN2)cc2[nH]cnc12 (as salt: fumarate) [Example 56, 7-Butyl-5-(2-imidazolin-2-ylamino)Benzimidazole]
- melting point: 115 to 117 °C

SMILES: c1ccc(-c2cc(NC3=NCCN3)cc3[nH]cnc23)cc1 (as salt: fumarate) [Example 57, 7-Phenyl-5-(2-imidazolin-2-ylamino)Benzimidazole]
- melting point: 149 to 151 °C

SMILES: Clc1cc(NC2=NCCN2)c(Br)c2[nH]cnc12 (as salt: fumarate) [Example 60, 4-Bromo-7-chloro-5-(2-imidazolin-2-ylamino)Benzimidazole]
- melting point: 244 to 246 °C
